The record followed here is PMC11855827, “High-Throughput Screening of Five Compound Libraries for Anthelmintic Activity and Toxicity Leads to the Discovery of Two Flavonoid Compounds” (International Journal of Molecular Sciences, 2025).

The structures appear in SMILES notation. Where two headings read alike, the source gives them in different places.

The test concerns C. elegans. The test is described as follows: microbe, parasite or virus in culture. Conditions: Caenorhabditis elegans.
[1] abbreviates: 0 h, read-out: Percentage of motility inhibition 0 h, Table S2, C. elegans SS assay, 110 μM, 0 h, averages of 4 data points.
Where [2] appears, read: 24 h, read-out: Percentage of motility inhibition 24 h, Table S2, C. elegans SS assay, 110 μM, 24 h, averages of 4 data points.
Setting [3] is: 0 h, read-out: Percentage of motility inhibition 0 h.
Where [4] appears, read: 24 h, read-out: Percentage of motility inhibition 24 h.

Broadly, the inhibition is the change of the read-out against control, counted positive when it falls. As to `C[C@H]1O[C@@H](O[C@H]2CC[C@@]3(C)[C@H](CC[C@@H]4[C@@H]3C[C@@H](O)[C@]3(C)[C@@H](C5=CC(=O)OC5)CC[C@]43O)C2)C[C@H](O)[C@@H]1O[C@H]1C[C@H](O)[C@H](O[C@H]2C[C@H](O)[C@H](O[C@@H]3O[C@H](CO)[C@@H](O)[C@H](O)[C@H]3O)[C@@H](C)O2)[C@@H](C)O1` [Deslanoside], the inhibition at 110 µM by setting is: under setting [1], 5%; under setting [2], 5%.

On to `CC(C)=C[C@H]1C[C@](C)(O)[C@@H]2[C@H]3CC[C@@H]4[C@@]5(C)CC[C@H](O[C@@H]6O[C@H](CO)[C@@H](O)[C@H](O[C@@H]7O[C@H](CO)[C@@H](O)[C@H](O)[C@H]7O)[C@H]6O[C@@H]6O[C@@H](CO)[C@H](O)[C@H]6O)C(C)(C)[C@@H]5CC[C@@]4(C)[C@@]34CO[C@@]2(C4)O1` [Bacoside A3], for which the inhibition at 110 µM was found to be 3% under setting [1] and 0% under setting [2].

For the compound `CC(C)(O/N=C(\C(=O)N[C@@H]1C(=O)N2C(C(=O)[O-])=C(C[n+]3ccccc3)CS[C@H]12)c1csc(N)n1)C(=O)O` [Ceftazidime], the inhibition at 110 µM reads like this: under setting [1], 37%; under setting [2], 28%.

In the case of `O=C(CBr)N1CC([N+](=O)[O-])([N+](=O)[O-])C1` [RRx‐001], the inhibition at 110 µM amounted to 19% under setting [1] and 6% under setting [2].

`Nc1ccn(C[C@@H](CO)OCP(=O)(O)O)c(=O)n1` [Cidofovir]: the inhibition at 110 µM runs as follows: under setting [1], 15%; under setting [2], 3%.

As to `C=C(C)[C@@H]1CC[C@]2(CO)CC[C@]3(C)[C@H](CC[C@@H]4[C@@]5(C)CC[C@H](O)C(C)(C)[C@@H]5CC[C@]43C)[C@@H]12` [Betulin], the inhibition at 110 µM runs as follows: under setting [1], 0%; under setting [2], 0%.

Take `CCC[C@H](NC(=O)[C@@H]1[C@H]2CCC[C@H]2CN1C(=O)[C@@H](NC(=O)[C@@H](NC(=O)c1cnccn1)C1CCCCC1)C(C)(C)C)C(=O)C(=O)NC1CC1` [Telaprevir]: the inhibition at 110 µM reads like this: under setting [1], 7%; under setting [2], 0%.

As for `N[C@@H](Cc1c[nH]cn1)C(=O)O` [L-Histidine], the inhibition at 110 µM reads like this: under setting [1], 23%; under setting [2], 22%.

With `O=C(CCc1ccc(O)cc1)c1c(O)cc(O)cc1O[C@@H]1O[C@H](CO)[C@@H](O)[C@H](O)[C@H]1O` [Phlorizin], the inhibition at 110 µM came out at 0% under setting [1] and 2% under setting [2].

For `C[C@@H]1C/C=C/C=C/C=C/C=C/[C@H](O[C@@H]2O[C@H](C)[C@@H](O)[C@H](N)[C@@H]2O)C[C@@H]2O[C@](O)(C[C@@H](O)C[C@H]3O[C@@H]3/C=C/C(=O)O1)C[C@H](O)[C@H]2C(=O)O` [Natamycin], the inhibition at 110 µM is, setting by setting: under setting [1], 26%; under setting [2], 0%.

For `C[N+](C)(C)CCOP(=O)(O)OP(=O)([O-])OC[C@H]1O[C@@H](n2ccc(N)nc2=O)[C@H](O)[C@@H]1O` [Citicoline], the inhibition at 110 µM was found to be 0% under setting [1] and 0% under setting [2].

For the compound `COc1cc(CNC(=O)CCCC/C=C/C(C)C)ccc1O` [Capsaicin], the inhibition at 110 µM is, setting by setting: under setting [3], 0%; under setting [4], 0%.

`O=[N+]([O-])C(Br)(CO)CO` [Bronopol]: the inhibition at 110 µM under setting [1] was 19% and the inhibition at 110 µM under setting [2] was 24%.

Take `O=C1CN(/N=C/C=C/c2ccc([N+](=O)[O-])o2)C(=O)N1` [Furagin]: the inhibition at 110 µM under setting [1] was determined as 6% and the inhibition at 110 µM under setting [2] came out at 0%.

As for `COc1ccc(C(=O)/C=C/c2ccccc2)cc1` [4'‐Methoxychalcone], the inhibition at 110 µM under setting [3] amounted to 0% and the inhibition at 110 µM under setting [4] stood at 5%.

On to `Oc1c(I)cc(Cl)c2cccnc12` [Clioquinol], for which the inhibition at 110 µM by setting is: under setting [1], 23%; under setting [2], 0%.

In the case of `C[C@H](CCC(=O)NCCS(=O)(=O)O)[C@H]1CC[C@H]2[C@@H]3CC[C@@H]4C[C@H](O)CC[C@]4(C)[C@H]3C[C@H](O)[C@]12C` [Taurodeoxycholic acid], the inhibition at 110 µM under setting [1] came to 0% and the inhibition at 110 µM under setting [2] turned out to be 7%.

Regarding `CS(=O)(=O)c1ccc([C@@H](O)[C@@H](CO)NC(=O)C(Cl)Cl)cc1` [Thiamphenicol], the inhibition at 110 µM runs as follows: under setting [1], 24%; under setting [2], 1%.

In the case of `O=C(O)CNCC(=O)O` [Iminodiacetic acid], the inhibition at 110 µM was found to be 15% under setting [1] and 0% under setting [2].

On to `C[C@@H]1CC[C@@]2(NC1)O[C@H]1C[C@H]3[C@@H]4CC=C5C[C@@H](O)CC[C@]5(C)[C@H]4CC[C@]3(C)[C@H]1[C@@H]2C` [Solasodine], for which the inhibition at 110 µM reads like this: under setting [1], 12%; under setting [2], 20%.

As for `C[C@@H]1O[C@@H](O[C@H]2CC[C@]3(C=O)[C@H]4CC[C@]5(C)[C@@H](C6=CC(=O)OC6)CC[C@]5(O)[C@@H]4CC[C@]3(O)C2)[C@H](O)[C@H](O)[C@H]1O` [Convallatoxin], the inhibition at 110 µM was determined as 2% under setting [1] and 3% under setting [2].

`O=C(O)c1cn(C2CC2)c2cc(N3CCC(O)(COc4ccc(N5C[C@H](CO)OC5=O)cc4F)CC3)c(F)cc2c1=O` [Cadazolid]: the inhibition at 110 µM under setting [1] is 5% and the inhibition at 110 µM under setting [2] was 31%.

On to `CC(C)C1=Cc2ccc3c(c2C(=O)C1=O)CCCC3(C)C` [Miltirone], for which the inhibition at 110 µM by setting is: under setting [1], 0%; under setting [2], 36%.

As for `COc1cc(/C=C/C(=O)O[C@H]2CC[C@]34C[C@]35CC[C@]3(C)[C@@H]([C@H](C)CCC=C(C)C)CC[C@@]3(C)[C@@H]5CC[C@H]4C2(C)C)ccc1O` [Cycloartenyl ferulate], the inhibition at 110 µM by setting is: under setting [1], 35%; under setting [2], 21%.

For `CC(C)=CCC[C@](C)(O[C@@H]1O[C@H](CO[C@@H]2OC[C@H](O)[C@H](O)[C@H]2O)[C@@H](O)[C@H](O)[C@H]1O)[C@H]1CC[C@]2(C)[C@@H]1[C@H](O)C[C@@H]1[C@@]3(C)CC[C@H](O[C@@H]4O[C@H](CO)[C@@H](O)[C@H](O)[C@H]4O[C@@H]4O[C@H](CO)[C@@H](O)[C@H](O)[C@H]4O)C(C)(C)[C@@H]3CC[C@]12C` [Ginsenoside Rb2], the inhibition at 110 µM by setting is: under setting [1], 7%; under setting [2], 0%.

On to `C[C@@H]1CC[C@]2(C(=O)O[C@@H]3O[C@H](CO)[C@@H](O)[C@H](O)[C@H]3O)CC[C@]3(C)C(=CC[C@@H]4[C@@]5(C)CC[C@H](O)[C@@](C)(CO)[C@@H]5CC[C@]43C)[C@@H]2[C@]1(C)O` [Pedunculoside], for which the inhibition at 110 µM was found to be 14% under setting [1] and 13% under setting [2].

Take `Oc1cc(O)c2c(c1)O[C@H](c1ccc(O)c(O)c1)[C@H](O)C2` [(‐)‐Epicatechin]: the inhibition at 110 µM came to 1% under setting [1] and 23% under setting [2].

Turning to `CC(=O)[C@H]1CC[C@H]2[C@@H]3CCC4=CC(=O)CC[C@]4(C)[C@H]3CC[C@]12C` [Progesterone], the inhibition at 110 µM was 0% under setting [1] and 12% under setting [2].

On to `COc1cc2c3c(c1OC)-c1ccccc1C[C@H]3N(C)CC2` [Nuciferine], for which the inhibition at 110 µM reads like this: under setting [1], 0%; under setting [2], 16%.

Turning to `C[C@H]1[C@H](C)CC[C@]2(C)CC[C@]3(C)C(=CC[C@@H]4[C@@]5(C)CC[C@@H](O)[C@](C)(C(=O)O)[C@@H]5CC[C@]43C)[C@H]12` [β-Boswellic acid], the inhibition at 110 µM came to 32% under setting [3] and 22% under setting [4].

`C[C@H](O)[C@H](O)[C@H]1CNc2nc(N)[nH]c(=O)c2N1` [Tetrahydrobiopterin]: the inhibition at 110 µM was found to be 0% under setting [1] and 3% under setting [2].

Turning to `Cc1cncc(C)n1` [2,6‐Dimethylpyrazine], the inhibition at 110 µM under setting [1] came out at 0% and the inhibition at 110 µM under setting [2] was determined as 0%.

Regarding `C=C(CC[C@@H](C(=O)O)[C@H]1[C@H](O)C[C@@]2(C)C3=CC[C@@H](C(=C)C)[C@](C)(CCC(=O)O)C3=CC[C@]12C)C(C)C` [Poricoic acid A], the inhibition at 110 µM came out at 2% under setting [3] and 8% under setting [4].

Take `CC(C)=CCC[C@@H](C)[C@@H]1CC[C@]2(C)C3=C(CC[C@@]12C)[C@@]1(C)CC[C@H](O)C(C)(C)[C@@H]1CC3` [Euphol]: the inhibition at 110 µM came to 0% under setting [1] and 41% under setting [2].

For `CC1=CC[C@@H](C(C)(C)O)CC1` [α-Terpineol], the inhibition at 110 µM by setting is: under setting [1], 22%; under setting [2], 17%.

As to `CC[C@@H]1CN2CC[C@@]3(C(=O)Nc4ccccc43)[C@@H]2C[C@@H]1/C(=C\OC)C(=O)OC` [Corynoxine], the inhibition at 110 µM under setting [1] turned out to be 3% and the inhibition at 110 µM under setting [2] came out at 3%.

For the compound `C=C(CCC=C(C)C)[C@H]1CC[C@]2(C)[C@@H]1[C@H](O)C[C@@H]1[C@@]3(C)C[C@@H](O)[C@H](O[C@@H]4O[C@H](CO)[C@@H](O)[C@H](O)[C@H]4O[C@@H]4O[C@H](CO)[C@@H](O)[C@H](O)[C@H]4O)C(C)(C)[C@@H]3CC[C@]12C` [Damulin B], the inhibition at 110 µM is 9% under setting [1] and 16% under setting [2].

In the case of `CC[C@@]1(O)C(=O)OCc2c1cc1n(c2=O)Cc2cc3c([N+](=O)[O-])cccc3nc2-1` [Rubitecan], the inhibition at 110 µM worked out at 5% under setting [1] and 0% under setting [2].

For the compound `CC=C1CN(C)C2Cc3c([nH]c4ccccc34)C(c3cc4[nH]c5c(c4cc3OC)CCN3CC4CC(CC)C3C5(C(=O)OC)C4)CC1C2C(=O)OC` (stereo not drawn) [Voacamine], the inhibition at 110 µM by setting is: under setting [1], 0%; under setting [2], 0%.

As for `C[C@H]1CC[C@@H]2[C@@H](C)[C@H]3[C@H](C[C@H]4[C@@H]5CC=C6C[C@@H](O)CC[C@]6(C)[C@H]5CC[C@]34C)N2C1` [Solanidine], the inhibition at 110 µM under setting [1] was determined as 0% and the inhibition at 110 µM under setting [2] is 0%.

Regarding `Cc1ccc2[nH]c3ccccc3c2c1` [3‐Methylcarbazole], the inhibition at 110 µM by setting is: under setting [1], 0%; under setting [2], 29%.

As for `C[C@H](CC[C@@H](O)C(C)(C)O)[C@H]1CC[C@@]2(C)[C@@H]3CC=C4[C@@H](CC[C@H](O)C4(C)C)[C@]3(C)C(=O)C[C@]12C` [Bryodulcosigenin], the inhibition at 110 µM is, setting by setting: under setting [1], 16%; under setting [2], 15%.
